Data reported in patent US20070003608A1, “Compounds, compositions and methods for the treatment of viral infections and other medical disorders” (priority 2005, published 2007).
Like-named read-outs stand apart in the source and are kept apart here.

Assays:
Variola Minor Garcia = details: cited from earlier work
[1] = test system: Human Cytomegalovirus (HCMV); test: HCMV antiviral assay, HCMV DNA quantified by DNA hybridization in MRC-5 cells; type: cell-based
Vaccinia = details: Vero cells, 1000 pfu/well, neutral red; average of 3 determinations; cited from earlier work
Cowpox = details: cited from earlier work
[2] = test system: Variola Major, Bangladesh; details: cited from earlier work
[3] = Cytotoxicity in vitro in MRC-5 human lung fibroblast cells, visual estimate of 50% reduction in cell number; details: human, MRC-5 human lung fibroblast cells
Vero cells = details: 50% cytotoxic concentration in Vero cells; cited from earlier work
[4] = Quantitative whole body autoradiograph after oral [2-14C] HDP-cidofovir; details: mouse, 4 hours after a 5 mg/kg oral dose of [2-14C] HDP-cidofovir
Variola Major, Yamada = details: cited from earlier work
HSV-1 = details: Human HSV replication in MRC-5 human lung fibroblasts, DNA reduction, about 24 h; average of two experiments (HDP-CDV single determination in duplicate); cited from earlier work
[5] = test system: human lung fibroblast cells (MRC-5); details: Table 7; cited from earlier work
[6] = test system: human lung fibroblast cells (MRC-5); test: Cytotoxicity in vitro in MRC-5 human lung fibroblast cells, visual estimate of 50% reduction in cell number; details: MRC-5 cells, 5 days; Table 2
HIV-1 [7] = test: HIV-1 plaque reduction assay in HT4-6C cells; type: cell-based; details: HIV-1 plaque reduction EC50 compared with adefovir
HT4-6C Cells = details: Table 6; cited from earlier work
HIV-1 [8] = details: cited from earlier work
[9] = Human CMV replication in MRC-5 human lung fibroblasts, DNA reduction, average of 3 to 6 determinations (ADV single replication in duplicate), read-out: EC50

**Q.** For CCCCCCCCCCCCCCCCOCCCOP(=O)(O)COC(CO)Cn1ccc(N)nc1=O (stereo not drawn) [HDP-CDV, hexadecyloxypropyl-cidofovir], which EC50 (Variola Minor Garcia) is on record?
**A.** Its EC50 is 0.0006 µM.

**Q.** And the EC50 ([1]; Human betaherpesvirus 5, MRC5, Human CMV replication in MRC-5 human lung fibroblasts, DNA reduction, average of 3 to 6 determinations (ADV single replication in duplicate), read-out: EC50)?
**A.** The EC50 was 0.002 nM.

**Q.** What about the EC50 (Vaccinia) of the same compound?
**A.** The EC50 was less than 0.03 µM.

**Q.** What about the EC50 (Cowpox) of the same compound?
**A.** The EC50 was less than 0.03 µM.

**Q.** And the EC50 [2]?
**A.** Its EC50 is 0.0015 µM.

**Q.** What about the CC50 at 5 days [3] of the same compound?
**A.** Its CC50 at 5 days is 10 µM.

**Q.** And the CC50 (Vero cells)?
**A.** The CC50 was greater than 0.1 µM.

**Q.** And the “tissue distribution of drug” value [4]?
**A.** The value was “distributed primarily in the GI tract as well as organs including the lung, heart, liver, and kidney”.

**Q.** What about the EC50 (Variola Major, Yamada) of the same compound?
**A.** The EC50 was 0.0015 µM.

**Q.** With CCCCCCCCCCCCCCCCCCOCCCOP(=O)(O)COC(CO)Cn1ccc(N)nc1=O (stereo not drawn) [1-O-octadecylpropanediol-3-CDV, 1-O-octadecylpropanediol-3-cidofovir] as the compound, how does the EC50 [1, 9] read?
**A.** The EC50 was 0.03 nM.

**Q.** And the EC50 (HSV-1)?
**A.** The EC50 was 0.003 µM.

**Q.** And the CC50 [5]?
**A.** Its CC50 is 32 µM.

**Q.** What about the CC50 [6] of the same compound?
**A.** The CC50 was 32 µM.

**Q.** For CCCCCCCCCCCCCCCCOCCCOP(=O)(O)COCCn1cnc2c(N)ncnc21 [HDP-ADV, 1-O-hexadecylpropanediol-3-adefovir], which “logs more active than adefovir itself” value (HIV-1 [7]) is on record?
**A.** The value was “more than 5 logs”.

**Q.** For Nc1ncnc2c1ncn2CCOCP(=O)(O)O [Adefovir, adefovir, reference compound], which EC50 ([1]; Human betaherpesvirus 5, MRC5) is on record?
**A.** The EC50 was 210 nM.

**Q.** What about the EC50 ([1]; Human betaherpesvirus 5, MRC5, 120 h, MRC-5 cells, 5 days, DNA hybridization, preliminary experiments, second TABLE 1, read-out: HCMV EC50) of the same compound?
**A.** The EC50 was 55000 nM.

**Q.** What about the CC50 (HT4-6C Cells) of the same compound?
**A.** Its CC50 is greater than 1000 µM.

**Q.** What about the CC50 at 5 days [3] of the same compound?
**A.** The CC50 at 5 days was greater than 1000 µM.

**Q.** And the EC50 (HIV-1 [8]; HIV replication in HT4-6C cells, plaque reduction, average of 4 experiments, Table 6, read-out: EC50)?
**A.** Its EC50 is 8.2 µM.

**Q.** What about the EC50 (HIV-1 [8]; HIV-1 LAI infected HT4-6C cells, 3 days, preliminary experiments, Table 5, read-out: EC50, μM, in HIV-1 plaque reduction assay) of the same compound?
**A.** Its EC50 is 16 µM.

**Q.** Which EC50 [1, 9] does the source give for CCCCCCCCCCCCCCCCOP1(=O)CO[C@@H](Cn2ccc(N)nc2=O)CO1 (stereo partly drawn) [Hexadecyl-cCDV, hexadecyl cyclic cidofovir] here?
**A.** The EC50 was 100 nM.

**Q.** What about the CC50 [6] of the same compound?
**A.** Its CC50 is 6.5 µM.

**Q.** For CCCCCCCCCCCCCCCCCCOCCOP(=O)(O)COC(CO)Cn1ccc(N)nc1=O (stereo not drawn) [1-O-octadecylpropanediol-2-CDV, 1-O-octadecylethanediol-2-cidofovir], which EC50 [1, 9] is on record?
**A.** The EC50 was 40 nM.

**Q.** For CCCCCCCCCCCCCCCCCCOCCOP1(=O)COC(Cn2ccc(N)nc2=O)CO1 (stereo not drawn) [1-O-octadecylpropanediol-2-cCDV, 1-O-octadecylethanediol-2-cyclic cidofovir], which EC50 [1, 9] is on record?
**A.** The EC50 was 55000 nM.
